# Source: US10774113B2, “Anti-infective compound” (priority 2015, dated 2020)
# Test system: Staphylococcus aureus USA 300 (LAC)
# Assay: MIC assay
# Type: cell-based
# Experimental: MIC determinations and killing assays were performed in Mueller Hinton Broth (MHB; Roth, Karlsruhe, Germany).
# S. aureus RN4220, S. aureus USA300 (LAC), S. aureus USA300 (NRS384), S. aureus SA113, S. aureus Mu50, E. coli DH5α and P. aeruginosa PAO1 were grown overnight in MHB. […] All strains were incubated at 37° C. under continuous shaking. Early log-phase grown bacteria were adjusted in MHB to 1×10^6 cells/well in microtiter plates (MTP), mixed with varying concentrations of the antibiotic and incubated at 37° C. for 24 h under continuous shaking. […] The assays were performed in 96-well microtiter plates.
# MIC assays for the antibiotics used in this study were performed as described above. […] Fresh MHB was inoculated 1:10,000 with an overnight culture of S. aureus USA300 LAC and was incubated at 37° C. under continuous shaking. Cells were grown to early log phase, adjusted to 1×10^6 cells/mL, and dispensed into 96-well MTPs with 100 μL per well. […] After 24 h incubation at 37° C. under continuous shaking, growth was determined with a microplate reader at an OD600 and cells from the second highest concentration of 0.25×MIC, 0.5×MIC, 1×MIC, 1.5×MIC, 2×MIC and 4×MIC from the appropriate antibiotic.
compound,measurement,value
CO[C@H]1/C=C/O[C@@]2(C)Oc3c(C)c(O)c4c(O)c(c(/C=N/N5CCN(C)CC5)c(O)c4c3C2=O)NC(=O)/C(C)=C\C=C\[C@H](C)[C@H](O)[C@@H](C)[C@@H](O)[C@@H](C)[C@H](OC(C)=O)[C@@H]1C [rifampicin],1×MIC against S. aureus USA300,0.01 µg/mL
